Assay results taken from patent US6670339B1, “Use of sulfated oligosaccharides in lowering blood triglyceride levels” (The Australian National University, priority 1997, dated 2003).

Legend:
[1] = tested on: serum triglyceride levels; experiment: Time course of serum triglyceride levels in mice after a single s.c. dose; assay type: in vivo, CBA/h female mice; details: single 50 mg/kg s.c.
Procedure: FIG. 1. Time course of the effect of a single s.c. dose (50 mg/kg) of sulfated mannopentaose phosphate (PI-88) on serum triglyceride levels, as measured by the Sigma triglyceride assay. Data presented as group means±SEM (n=4).
Thus, 32 CBA/h female mice 8-10 weeks old were weighed and placed into eight groups, containing four mice each based on weight. The control group was injected with sterile normal saline solution 100 μl s.c. All the treatment groups were injected with sulfated mannopentaose at a dose of 50 mg/kg s.c. in a volume of 100 μl of sterile normal saline solution. At 0.5, 1, 2, 3, 6, 24 and 48 hours following injection mice were anaesthetised and blood was collected via cardiac puncture and allowed to clot and serum triglyceride levels were measured using a commercially available kit (Sigma, Triglyceride—GPO-Trinder).

[2] = tested on: blood triglyceride levels; experiment: Blood triglyceride levels in Fisher rats after 7 days of twice daily s.c. injection; assay type: in vivo; details: female Fisher rats, blood on day 8, control 1.43±0.13
Procedure: 1. Nine 10 week old female Fisher rats were treated with the sulfated mannopentaose phosphate or saline over a 7 day period as follows. On […] the rats were weighed and placed into three groups of three rats based on weight. On every subsequent morning their weights were recorded. Each morning beginning on day 1 at approximately 8.00 AM and evening at approximately 8.00 PM the rats were injected in the following manner. The control group received sterile normal saline solution 100 μl s.c. One treatment group received the sulfated mannopentaose phosphate at a dose of 10 mg/kg s.c. in an injection volume of 100 μl of sterile saline solution. Thus, each rat in this group received a total daily dose of 20 mg/kg. Animals in the second treatment group received the sulfated mannopentaose phosphate at a dose of 50 mg/kg s.c. in an injection volume of 100 μl of sterile saline solution. Thus, each rat in this group received a total daily dose of 100 mg/kg. This injection routine was repeated for a total of 7 days.
On the morning of day 8 of the experiment, the rats were anaesthetised and blood was taken for triglyceride analysis. Triglyceride levels were determined using a commercially available assay kit (Sigma, Triglyceride—GPO-Trinder). […]

[3] = tested on: blood triglyceride levels; experiment: Blood triglyceride levels in mice after alternate daily s.c. injection; assay type: in vivo, CBA/h female mice; details: 50 mg/kg s.c. on alternate days, 4 injections, 24 hours after last injection; control 1.11±0.1
Procedure: Thus, 10 CBA/h female mice 8-10 weeks old were weighed and divided into two groups of 5 mice each based on weight. Mice in the control group were injected with sterile normal saline solution 100 μl s.c. on alternate days for a total of 4 injections. Mice in the treatment group were injected with the sulfated mannopentaose phosphate at a dose of 50 mg/kg s.c. on alternate days for a total of 4 injections. Twenty-four hours following the last injection, blood (50 μl) was collected from the tail veins of each animal and assayed for triglyceride levels (Sigma, Triglyceride—GPO-Trinder). Blood triglyceride levels in the control group averaged 1.11±0.1 mM and blood triglyceride levels in the treatment group averaged 0.64±0.04 mM.

[4] = tested on: blood triglyceride levels; experiment: Blood triglyceride levels in mice under continuous infusion by mini-osmotic pump; assay type: in vivo, CBA/h female mice
Procedure: Thus, 10 CBA/h female mice 8-10 weeks old were weighed and divided into two groups of 5 mice each based on weight. Mice in the control group were implanted subcutaneously with a mini-osmotic pump (Alzet 2001) containing sterile normal saline solution. Mice in the treatment group were implanted subcutaneously with a mini-osmotic pump containing the sulfated mannopentaose phosphate which delivered the sulfated mannopentaose phosphate at a dose of 50 mg/kg/day. At the end of the 7 day period over which the mini-osmotic pumps delivered their payload, blood (50 μl) was collected from the tail veins of mice from both groups and assayed for triglycerides (Sigma, Triglyceride—GPO-Trinder). Triglyceride levels in the blood from mice in the control group averaged 1.49±0.23 mM and triglyceride levels in the blood of mice in the treatment group averaged 1.01±0.07 mM. One week following the treatment period, blood triglyceride levels were measured again in each group and levels in the treatment group had returned to normal, or those approximating the control group. Thus, at this point levels of triglycerides in the blood of mice in the control group averaged 1.29±0.08 mM and levels of triglycerides in the blood of mice in the treatment group averaged 1.27±0.06 mM.

[5] = tested on: serum triglyceride levels; experiment: Serum triglyceride levels in mice 2 hours after a single s.c. dose (dose response); assay type: in vivo, CBA/h female mice; details: single s.c. doses of 10 mg/kg and above (10, 20, 50, 100 mg/kg), 2 hours after injection
Procedure: FIG. 2. Effect of different single doses of sulfated mannopentaose phosphate (PI-88) (10-100 mg/kg) on serum triglyceride levels 2 hours following s.c. injection. Data presented as group means±SEM (n=4).
Thus, 20 CBA/h female mice 8-10 weeks old were weighed and placed into five groups, containing four mice each based on weight. The control group was injected with sterile normal saline solution 100 μl s.c. The respective treatment groups were injected with sulfated mannopentaose phosphate at doses of 10, 20, 50 or 100 mg/kg s.c. in a volume of 100 μl of sterile normal saline solution. Two hours following injection, mice were anaesthetised and blood was collected via cardiac puncture and allowed to clot and serum triglyceride levels were measured using a commercially available kit (Sigma, Triglyceride—GPO-Trinder).

In the case of “sulfated mannopentaose phosphate [PI-88 (15 SO4/molecule)]”, the “time to significant reduction in blood triglyceride levels” value [1] is reported as at most 0.5 h, the “time until which triglyceride levels continued to fall (maximum lowering)” value [1] is reported as 2 h and the “triglyceride levels versus controls, in words” value ([1]; 6 hours after injection) is reported as “significantly lower than controls”. For the same substance, the “triglyceride levels versus controls, in words” value ([1]; 24 hour time point) was “returning to normal”, the blood triglyceride levels ([2]; 20 mg/kg/day s.c. (10 mg/kg twice daily)) was 0.3 ± 0.12 mmol/L and the blood triglyceride levels ([2]; 100 mg/kg/day s.c. (50 mg/kg twice daily)) was 0.1 ± 0.0 mmol/L. The blood triglyceride levels [3] was 0.64 ± 0.04 mM, the “triglyceride levels in the blood” value ([4]; 50 mg/kg/day by s.c. mini-osmotic pump, end of 7 day period, control 1.49±0.23) was 1.01 ± 0.07 mM and the “triglyceride levels in the blood” value ([4]; one week following the 7 day infusion of 50 mg/kg/day, control 1.29±0.08) was 1.27 ± 0.06 mM. The “reduction in blood triglyceride levels, in words” value [5] was “significant reduction”.
